Source: patent publication US7524962B2, “Biphenyl compounds useful as muscarinic receptor antagonists” (Theravance, Inc., priority 2004, dated 2009)

Target: T1, hM3 muscarinic receptor subtype (Homo sapiens, UniProt P20309)
T1 construct: expressed in transfected cells; crude membranes
Assay: Radioligand binding assay ([3H]-NMS displacement), CHO cell membranes
Settings: [3H]-NMS at 1 nM, CHO cell membranes expressing hM3, 60 minutes at 37° C.; read-out: Ki value for the M3 muscarinic receptor subtype
Procedure: A. Membrane Preparation from Cells Expressing hM1, hM2, hM3 and hM4 Muscarinic Receptor Subtypes
CHO (Chinese hamster ovary) cell lines stably expressing cloned human hM1, hM2, hM3 and hM4 muscarinic receptor subtypes, respectively, were grown to near confluency in medium consisting of HAM's F-12 supplemented with 10% FBS (Fetal Bovine Serum) and 250 μg/mL Geneticin. The cells were grown in a 5% CO2, 37° C. incubator and lifted with 2 mM EDTA in dPBS. Cells were collected by 5 minute centrifugation at 650×g, and cell pellets were either stored frozen at −80° C. or membranes were prepared immediately. […] The protein concentration of the membrane suspension was determined by the method described in Lowry, O. et al., Journal of Biochemistry 193:265 (1951). […]
Radioligand binding assays were performed in 96-well microtiter plates in a total assay volume of 100 μL. […] Filter plates were rinsed three times with wash buffer (10 mM HEPES) to remove unbound radioactivity. […] The plates were then counted in a PerkinElmer Topcount liquid scintillation counter (PerkinElmer Inc., Wellesley, Mass.). Binding data were analyzed by nonlinear regression analysis with the GraphPad Prism Software package (GraphPad Software, Inc., San Diego, Calif.) using the one-site competition model. […]

T1 sequence (P20309 whole entry): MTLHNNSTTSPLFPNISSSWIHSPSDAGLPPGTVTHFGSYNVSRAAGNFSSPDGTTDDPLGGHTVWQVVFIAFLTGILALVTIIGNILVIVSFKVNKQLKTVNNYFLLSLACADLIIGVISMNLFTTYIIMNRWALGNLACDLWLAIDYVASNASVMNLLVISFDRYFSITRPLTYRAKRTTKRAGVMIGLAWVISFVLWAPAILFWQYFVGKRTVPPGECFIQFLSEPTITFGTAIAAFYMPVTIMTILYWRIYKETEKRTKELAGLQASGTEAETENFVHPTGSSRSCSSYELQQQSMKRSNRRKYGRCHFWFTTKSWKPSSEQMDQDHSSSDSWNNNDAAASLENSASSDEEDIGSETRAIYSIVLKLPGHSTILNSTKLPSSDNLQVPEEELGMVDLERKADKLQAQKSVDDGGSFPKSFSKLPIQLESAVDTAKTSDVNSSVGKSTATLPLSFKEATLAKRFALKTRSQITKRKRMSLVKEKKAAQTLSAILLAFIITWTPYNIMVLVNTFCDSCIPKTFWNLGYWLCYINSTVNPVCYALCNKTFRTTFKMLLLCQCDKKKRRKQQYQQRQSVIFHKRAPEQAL

Ki: < 5 nM
SMILES: NC(=O)C1CCN(CCCCCNC(=O)CCN2CCC(OC(=O)Nc3ccccc3-c3ccccc3)CC2)CC1 [Example 1, Biphenyl-2-ylcarbamic Acid 1-{2-[5-(4-Carbamoylpiperidin-1-yl)pentylcarbamoyl]ethyl}piperidin-4-yl Ester]
